Like-named read-outs stand apart in the source and are kept apart here.
Test system: HBsAg
Experiment: HBsAg assay: inhibition of HBsAg in HepG2.2.15 cells (CLIA immunoassay of supernatant)
Type: cell-based, hepatitis B virus (HBV)
Settings: supernatant collected at day 6 after exposure, HBsAg chemiluminescence immunoassay
Description: Inhibition of HBsAg was determined in HepG2.2.15 cells. Cells were maintained in culture medium containing 10% fetal calf serum, […], Glutamine, penicillin/streptomycin. Cells were seeded in 96-well collagen-coated plate at a density of 30,000 cells/well. Serially diluted compounds were added to cells next day at the final DMSO concentration of 0.5%. Cells were incubated with compounds for 2-3 days, after which medium was removed. Fresh medium containing compounds was added to cells for additional 3-4 days. At day 6 after exposure of compounds, supernatant was collected, the HBsAg immunoassay (microplate-based chemiluminescence immunoassay kits, CLIA, Autobio Diagnosics Co., Zhengzhou, China, Catalog #CL0310-2) was used to determine the level of HBsAg according to manufactory instruction. Dose-response curves were generated and the EC50 value (effective concentrations that achieved 50% inhibitory effect) were determined using XLfit software. In addition, cells can be seeded at a density of 5,000 cells/well for determination of cell viability in the presence and absence of compounds by using CellTiter-Glo reagent (Promega). Tables 1-3 show EC50 values obtained by the HBsAg assay for selected compounds.

[1] = read-out: sAg EC50, HepG2.2.15 cells
[2] = Hepatitis B virus, HepG2.2.15, 144 h, read-out: sAg EC50, HepG2.2.15 cells

Row | SMILES | EC50 [1] [nM] | EC50 [2] [nM]
1 | COCCCOc1cc2c(nc1OC)-c1[nH]c(=O)c(C(N)=O)c(O)c1C(C(C)(C)C)C2 (single isomer, unassigned) [Example 61, 5-(tert-Butyl)-4-hydroxy-9-methoxy-8-(3-methoxypropoxy)-2-oxo-1,2,5,6-tetrahydro-1,10-phenanthroline-3-carboxamide] | 300 | 
2 | CCc1nc2c(cc1OCCCOC)OCC(C(C)(C)C)c1c-2[nH]c(=O)c(C(=O)O)c1O (single isomer, unassigned) [Example 81, 7-(tert-Butyl)-2-ethyl-8-hydroxy-3-(3-methoxypropoxy)-10-oxo-6,7,10,11-tetrahydrooxepino[3,2-b:4,5-b′]dipyridine-9-carboxylic acid] | 4 | 
3 | COCCCOc1cc2c(cc1OC)-c1[nH]c(=O)c(C(=O)O)cc1C1(CCCCC1)C2 [Example 73, 9-Methoxy-8-(3-methoxypropoxy)-2-oxo-2,6-dihydro-1H-spiro[benzo[h]quinoline-5,1′-cyclohexane]-3-carboxylic acid] |  | 110
4 | COCCCOc1cc2c(nc1OC)-c1[nH]c(=O)c(C(=O)O)c(OC)c1C(C(C)(C)C)C2 (stereo not shown) [Example 92, 5-(tert-Butyl)-4,9-dimethoxy-8-(3-methoxypropoxy)-2-oxo-1,2,5,6-tetrahydro-1,10-phenanthroline-3-carboxylic acid] |  | 640
5 | COCCCOc1cc2c(cc1OC)-c1[nH]c(=O)c(C(=O)O)c(O)c1C(C)(C(C)C)C2 (single isomer, unassigned) [Example 32, 4-Hydroxy-5-isopropyl-9-methoxy-8-(3-methoxypropoxy)-5-methyl-2-oxo-1,2,5,6-tetrahydrobenzo[h]quinoline-3-carboxylic acid] | 10000 | 
6 | COCCCOc1cc2c(cc1Cl)-c1[nH]c(=O)c(C(=O)O)cc1C(C)(C(C)C)C2 (single isomer, unassigned) [Example 11, 9-Chloro-5-isopropyl-8-(3-methoxypropoxy)-5-methyl-2-oxo-1,6-dihydrobenzo[h]quinoline-3-carboxylic acid] | 250 | 
7 | COCCCOc1cc2c(cc1OC)-c1nc(OC)c(C(=O)O)cc1C(C(C)C)C2 (stereo not shown) [Example 12, 5-Isopropyl-2,9-dimethoxy-8-(3-methoxypropoxy)-5,6-dihydrobenzo[h]quinoline-3-carboxylicacid] |  | 1200
8 | COCCCOc1cc2c(cc1OC)-c1[nH]c(=O)c(C(=O)O)c(OCCN(C)C)c1C(C(C)C)C2 (stereo not shown) [Example 89, 4-(2-(Dimethylamino)ethoxy)-5-isopropyl-9-methoxy-8-(3-methoxypropoxy)-2-oxo-1,2,5,6-tetrahydrobenzo[h]quinoline-3-carboxylic acid] |  | 4600
9 | COCCCOc1cc2c(nc1C1CC1)-c1[nH]c(=O)c(C(=O)O)c(O)c1C(C(C)(C)C)CO2 (single isomer, unassigned) [Example 83, 7-(tert-Butyl)-2-cyclopropyl-8-hydroxy-3-(3-methoxypropoxy)-10-oxo-6,7,10,11-tetrahydrooxepino[3,2-b:4,5-b′]dipyridine-9-carboxylic acid] | 15 | 
10 | COCCCOc1cc2c(nc1C1CC1)-c1[nH]c(=O)c(C(=O)O)c(O)c1C(C(C)C)C2 (stereo not shown) [Example 49, 9-Cyclopropyl-4-hydroxy-5-isopropyl-8-(3-methoxypropoxy)-2-oxo-1,2,5,6-tetrahydro-1,10-phenanthroline-3-carboxylicacid] |  | 1
11 | COCCCOc1cc2c(cc1OC)-c1[nH]c(=O)c(C(=O)O)cc1C(C)(C(C)C)C2 (single isomer, unassigned) [Example 7, 5-Isopropyl-9-methoxy-8-(3-methoxypropoxy)-5-methyl-2-oxo-1,6-dihydrobenzo[h]quinoline-3-carboxylic acid] | 22 | 
12 | COCCCOc1cc2c(cc1OC)-c1[nH]c(=O)c(-c3ncn[nH]3)c(O)c1C(C(C)C)C2 (stereo not shown) [Example 57, 4-Hydroxy-5-isopropyl-9-methoxy-8-(3-methoxypropoxy)-3-(1H-1,2,4-triazol-5-yl)-5,6-dihydrobenzo[h]quinolin-2(1H)-one] |  | 11
13 | COCCCOc1cc2c(nc1OC)-c1[nH]c(=O)c(C(=O)O)c(O)c1C(C(C)(C)C)C2 (single isomer, unassigned) [Example 37, 5-(tert-Butyl)-4-hydroxy-9-methoxy-8-(3-methoxypropoxy)-2-oxo-1,2,5,6-tetrahydro-1,10-phenanthroline-3-carboxylic acid] | 1 | 
14 | CNC(=O)c1c(O)c2c([nH]c1=O)-c1nc(OC)c(OCCCOC)cc1CC2C(C)(C)C (stereo not shown) [Example 63, 5-(tert-Butyl)-4-hydroxy-9-methoxy-8-(3-methoxypropoxy)-N-methyl-2-oxo-1,2,5,6-tetrahydro-1,10-phenanthroline-3-carboxamide] |  | 18
15 | COCCCOc1cc2c(nc1Cl)-c1[nH]c(=O)c(C(=O)O)c(O)c1C(C(C)C)CO2 (single isomer, unassigned) [Example 75, 2-Chloro-8-hydroxy-7-isopropyl-3-(3-methoxypropoxy)-10-oxo-6,7,10,11-tetrahydrooxepino[3,2-b:4,5-b′]dipyridine-9-carboxylic acid] | 22 | 
16 | COCCCOc1cc2c(nc1OC)-c1[nH]c(=O)c(C(=O)N(C)C)c(O)c1C(C(C)(C)C)C2 (stereo not shown) [Example 64] |  | 2000
17 | COCCCOc1cc2c(cc1OC)-c1[nH]c(=O)c(C(=O)O)c(O)c1C(C)(C(C)C)C2 (stereo not shown) [Example 30, 4-Hydroxy-5-isopropyl-9-methoxy-8-(3-methoxypropoxy)-5-methyl-2-oxo-1,2,5,6-tetrahydrobenzo[h]quinoline-3-carboxylic acid] |  | 58
18 | COCCCOc1cc2c(cc1OC)-c1nc(Cl)c(C(=O)O)c(O)c1C(C(C)C)C2 (stereo not shown) [Example 19, 2-Chloro-4-hydroxy-5-isopropyl-9-methoxy-8-(3-methoxypropoxy)-5,6-dihydrobenzo[h]quinoline-3-carboxylicacid] |  | 8000
19 | COCCCOc1cc2c(cc1Cl)-c1[nH]c(=O)c(C(=O)O)c(O)c1C(C)(C(C)C)C2 (single isomer, unassigned) [Example 15, 9-Chloro-4-hydroxy-5-isopropyl-8-(3-methoxypropoxy)-5-methyl-2-oxo-1,2,5,6-tetrahydrobenzo[h]quinoline-3-carboxylic acid] | 18 | 
20 | COCCCOc1cc2c(cc1OC)-c1[nH]c(=O)c(C(=O)O)c(OCCO)c1C(C(C)C)C2 (stereo not shown) [Example 90, 4-(2-Hydroxyethoxy)-5-isopropyl-9-methoxy-8-(3-methoxypropoxy)-2-oxo-1,2,5,6-tetrahydrobenzo[h]quinoline-3-carboxylicacid] |  | 11000
21 | COCCCOc1cc2c(cc1Cl)-c1[nH]c(=O)c(C(=O)O)c(O)c1[C@H](C(C)C)CO2 [Example 70, (S)-10-Chloro-4-hydroxy-5-isopropyl-9-(3-methoxypropoxy)-2-oxo-1,2,5,6-tetrahydrobenzo[2,3]oxepino[4,5-b]pyridine-3-carboxylic acid] |  | 120
22 | COCCCOc1cc2c(cc1OC)-c1[nH]c(=O)c(C(=O)O)cc1C(C(C)C)C2 (single isomer, unassigned) [Example 2, 5-Isopropyl-9-methoxy-8-(3-methoxypropoxy)-2-oxo-1,2,5,6-tetrahydrobenzo[h]quinoline-3-carboxylic acid] | 11 | 
23 | COCCCOc1cc2c(cc1OC)-c1[nH]c(=O)c(C(=O)O)c(F)c1C(C(C)C)C2 (stereo not shown) [Example 17, 4-Fluoro-5-isopropyl-9-methoxy-8-(3-methoxypropoxy)-2-oxo-1,2,5,6-tetrahydrobenzo[h]quinoline-3-carboxylic acid] |  | 640
24 | COCCCOc1cc2c(cc1OC)-c1[nH]c(=O)c(C(=O)O)cc1C(C)(C(C)C)C2 (single isomer, unassigned) [Example 8, 5-Isopropyl-9-methoxy-8-(3-methoxypropoxy)-5-methyl-2-oxo-1,6-dihydrobenzo[h]quinoline-3-carboxylic acid] | 2500 | 
25 | COCCCOc1cc2c(cc1OC)-c1nc(Cl)c(C(=O)O)c(Cl)c1C(C(C)C)C2 (stereo not shown) [Example 21, 2,4-Dichloro-5-isopropyl-9-methoxy-8-(3-methoxypropoxy)-5,6-dihydrobenzo[h]quinoline-3-carboxylic acid] |  | 150
26 | COCCCOc1cc2c(nc1OC)-c1[nH]c(=O)c(C(=O)O)c(O)c1C(C(C)(C)C)CO2 (single isomer, unassigned) [Example 85, 7-(tert-Butyl)-8-hydroxy-2-methoxy-3-(3-methoxypropoxy)-10-oxo-6,7,10,11-tetrahydrooxepino[3,2-b:4,5-b′]dipyridine-9-carboxylic acid] | 66 | 
27 | COCCCOc1cc2c(nc1Cl)-c1[nH]c(=O)c(C(=O)O)c(O)c1C(C(C)C)CO2 (single isomer, unassigned) [Example 76, 2-Chloro-8-hydroxy-7-isopropyl-3-(3-methoxypropoxy)-10-oxo-6,7,10,11-tetrahydrooxepino[3,2-b:4,5-b′]dipyridine-9-carboxylic acid] | 560 | 
28 | COCCCOc1cc2c(cc1OC)-c1[nH]c(=O)c(C(N)=O)c(O)c1C(C(C)C)C2 (stereo not shown) [Example 58, 4-Hydroxy-5-isopropyl-9-methoxy-8-(3-methoxypropoxy)-2-oxo-1,2,5,6-tetrahydrobenzo[h]quinoline-3-carboxamide] |  | 20
